Measured values from US20240336654A1, “ANTIMICROBIAL PEPTIDOMIMETICS” (SPEXIS AG, priority 2021, published 2024).
Where a SMILES comes first, the peptide text is derived from it. Bridges are numbered along the chain shown (N, C = ends). [ ]: non-standard residue; d: D form. The star is where a group is joined. Val(Nα-amidino) = CC(C)[C@H](NC(=N)N)C(=O)*; Hyp = O=C(O)[C@@H]1C[C@@H](O)CN1; Pen = CC(C)(S)[C@H](N)C(=O)O; dDab = NCC[C@@H](N)C(=O)O; Dab = NCC[C@H](N)C(=O)O

What was measured:
Assay type in all cases: cell-based
[1] = system: Klebsiella pneumoniae SSI3010; details: SSI3010
Summary of the method: (§1)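 MICs were determined by CLSI broth microdilution in cation-adjusted Mueller-Hinton II broth with about 5×10^5 CFU/mL inoculum. Peptides were tested in two-fold serial dilutions with 0.002% polysorbate 80 final. MIC in μg/mL is the lowest concentration with no visible growth after 18-20 h at 35 °C.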

[2] = system: Escherichia coli ATCC 25922; details: ATCC 25922
Summary of the method: as §1

[3] = system: Escherichia coli MCR-1 Af 45; details: MCR-1 Af 45
Summary of the method: as §1

[4] = system: human red blood cells (hRBC); details: red cells of human, 1 h, 200 μg/mL
Summary of the method: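 Peptides at 200 μg/mL incubated 1 h at 37 °C with 20% (v/v) washed human RBC, shaking. Hemolysis from supernatant OD540, expressed as percent of 2.5% Triton X-100 lysis, with PBS as 0%.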

SMILES | Klebsiella pneumoniae SSI3010 MIC [1] | Escherichia coli ATCC 25922 MIC [2] | Escherichia coli MCR-1 Af45 MIC [3] | Hemolysis at 0.2 g/L [4]
CC[C@H](C)[C@H](NC(=O)[C@@H]1C[C@@H](O)CN1C(=O)[C@@H](N)C(C)C)C(=O)N[C@H]1CCC(=O)NCC[C@@H](C(=O)N[C@@H](Cc2ccc(O)cc2)C(=O)O)NC(=O)[C@H](CCN)NC(=O)[C@H](CCN)NC(=O)[C@H](CCCCN)NC(=O)[C@@H](CCN)NC(=O)[C@H]([C@@H](C)O)NC(=O)[C@H](CCN)NC(=O)[C@H](CCCNC(=N)N)NC(=O)[C@H](CC(N)=O)NC(=O)[C@H](CO)NC(=O)[C@H](Cc2ccc(O)cc2)NC1=O [Example 79, Val-Hyp-Ile-Glu-Tyr-Ser-Asn-Arg-Dab-Thr-^DDab-Lys-Dab-Dab-Dab-Tyr] (H-V[Hyp]IEYSNR[Dab]T[dDab]K[Dab][Dab][Dab]Y-OH; lactam 4-15) | 0.25 µg/mL | 0.125 µg/mL | 0.0625 µg/mL | <1%
CC[C@H](C)[C@H](NC(=O)[C@@H]1C[C@@H](O)CN1C(=O)[C@@H](NC(=N)N)C(C)C)C(=O)N[C@@H]1C(=O)N[C@@H](Cc2ccc(O)cc2)C(=O)N[C@@H]([C@@H](C)O)C(=O)N[C@@H](CC(N)=O)C(=O)N[C@@H](CCCNC(=N)N)C(=O)N[C@@H](CCN)C(=O)N[C@@H](CO)C(=O)N[C@H](CCN)C(=O)N[C@@H](CCCCN)C(=O)N[C@@H](CCN)C(=O)N[C@@H](CCN)C(=O)N[C@H](C(=O)N[C@@H](Cc2ccc(O)cc2)C(=O)O)CSSC1(C)C [Example 80, Gua-Val-Hyp-Ile-Pen-Tyr-Thr-Asn-Arg-Dab-Ser-^DDab-Lys-Dab-Dab-Cys-Tyr] ({Val(Nα-amidino)}-[Hyp]I[Pen]YTNR[Dab]S[dDab]K[Dab][Dab]CY-OH; disulfide 3-14) | 0.125 µg/mL | 0.125 µg/mL | 0.0625 µg/mL | <1%
CC[C@H](C)[C@H](NC(=O)[C@@H]1C[C@@H](O)CN1C(=O)[C@@H](NC(=N)N)C(C)C)C(=O)N[C@@H]1C(=O)N[C@@H](Cc2ccc(O)cc2)C(=O)N[C@@H]([C@@H](C)O)C(=O)N[C@@H](CC(N)=O)C(=O)N[C@@H](CCCNC(=N)N)C(=O)N[C@@H](CCN)C(=O)N[C@@H]([C@@H](C)O)C(=O)N[C@H](CCN)C(=O)N[C@@H](CO)C(=O)N[C@@H](CCN)C(=O)N[C@@H](CCN)C(=O)N[C@H](C(=O)N[C@@H](Cc2ccc(O)cc2)C(=O)O)CSSC1(C)C [Example 81, Gua-Val-Hyp-Ile-Pen-Tyr-Thr-Asn-Arg-Dab-Thr-^DDab-Ser-Dab-Dab-Cys-Tyr] ({Val(Nα-amidino)}-[Hyp]I[Pen]YTNR[Dab]T[dDab]S[Dab][Dab]CY-OH; disulfide 3-14) | 0.25 µg/mL | 0.125 µg/mL | 0.125 µg/mL | <1%
CC[C@H](C)[C@H](NC(=O)[C@@H]1C[C@@H](O)CN1C(=O)[C@@H](NC(=N)N)C(C)C)C(=O)N[C@@H]1C(=O)N[C@@H](Cc2ccc(O)cc2)C(=O)N[C@@H]([C@@H](C)O)C(=O)N[C@@H](CC(N)=O)C(=O)N[C@@H](CCCNC(=N)N)C(=O)N[C@@H](CCN)C(=O)N[C@@H](CO)C(=O)N[C@H](CCN)C(=O)N[C@@H](CO)C(=O)N[C@@H](CCN)C(=O)N[C@@H](CCN)C(=O)N[C@H](C(=O)N[C@@H](Cc2ccc(O)cc2)C(=O)O)CSSC1(C)C [Example 82, Gua-Val-Hyp-Ile-Pen-Tyr-Thr-Asn-Arg-Dab-Ser-^DDab-Ser-Dab-Dab-Cys-Tyr] ({Val(Nα-amidino)}-[Hyp]I[Pen]YTNR[Dab]S[dDab]S[Dab][Dab]CY-OH; disulfide 3-14) | 0.25 µg/mL | 0.125 µg/mL | 0.125 µg/mL | <1%
CC[C@H](C)[C@H](NC(=O)[C@@H]1C[C@@H](O)CN1C(=O)[C@@H](NC(=N)N)C(C)C)C(=O)N[C@H]1CCNC(=O)CC[C@@H](C(=O)N[C@@H](Cc2ccc(O)cc2)C(=O)O)NC(=O)[C@H](CCN)NC(=O)[C@H](CCN)NC(=O)[C@H](CCCCN)NC(=O)[C@@H](CCN)NC(=O)[C@H](CO)NC(=O)[C@H](CCN)NC(=O)[C@H](CCCNC(=N)N)NC(=O)[C@H](CC(N)=O)NC(=O)[C@H](CO)NC(=O)[C@H](Cc2ccc(O)cc2)NC1=O [Example 84, Gua-Val-Hyp-Ile-Dab-Tyr-Ser-Asn-Arg-Dab-Ser-^DDab-Lys-Dab-Dab-Glu-Tyr] ({Val(Nα-amidino)}-[Hyp]I[Dab]YSNR[Dab]S[dDab]K[Dab][Dab]EY-OH; lactam 3-14) | 0.125 µg/mL | 0.0625 µg/mL | 0.03125 µg/mL | <1%
CC[C@H](C)[C@H](NC(=O)[C@@H]1C[C@@H](O)CN1C(=O)[C@@H](NC(=N)N)C(C)C)C(=O)N[C@H]1CCNC(=O)CC[C@@H](C(=O)N[C@@H](Cc2ccc(O)cc2)C(=O)O)NC(=O)[C@H](CCN)NC(=O)[C@H](CCN)NC(=O)[C@H](CCCCN)NC(=O)[C@@H](CCN)NC(=O)[C@H]([C@@H](C)O)NC(=O)[C@H](CCN)NC(=O)[C@H](CCCNC(=N)N)NC(=O)[C@H](CC(N)=O)NC(=O)[C@H]([C@@H](C)O)NC(=O)[C@H](Cc2ccc(O)cc2)NC1=O [Example 85, Gua-Val-Hyp-Ile-Dab-Tyr-Thr-Asn-Arg-Dab-Thr-^DDab-Lys-Dab-Dab-Glu-Tyr] ({Val(Nα-amidino)}-[Hyp]I[Dab]YTNR[Dab]T[dDab]K[Dab][Dab]EY-OH; lactam 3-14) | 0.125 µg/mL | 0.0625 µg/mL | 0.0625 µg/mL | 1%
CC[C@H](C)[C@H](NC(=O)[C@@H]1C[C@@H](O)CN1C(=O)[C@@H](NC(=N)N)C(C)C)C(=O)N[C@H]1CCC(=O)NCC[C@@H](C(=O)N[C@@H](Cc2ccc(O)cc2)C(=O)O)NC(=O)[C@H](CCN)NC(=O)[C@H](CCN)NC(=O)[C@H](CCCCN)NC(=O)[C@@H](CCN)NC(=O)[C@H]([C@@H](C)O)NC(=O)[C@H](CCN)NC(=O)[C@H](CCCNC(=N)N)NC(=O)[C@H](CC(N)=O)NC(=O)[C@H]([C@@H](C)O)NC(=O)[C@H](Cc2ccc(O)cc2)NC1=O [Example 88, Gua-Val-Hyp-Ile-Glu-Tyr-Thr-Asn-Arg-Dab-Thr-^DDab-Lys-Dab-Dab-Dab-Tyr] ({Val(Nα-amidino)}-[Hyp]IEYTNR[Dab]T[dDab]K[Dab][Dab][Dab]Y-OH; lactam 3-14) | 0.125 µg/mL | 0.125 µg/mL | 0.0625 µg/mL | <1%

Continued, in another order:

Klebsiella pneumoniae SSI3010 MIC [1] | Escherichia coli ATCC 25922 MIC [2] | Escherichia coli MCR-1 Af45 MIC [3] | SMILES | Hemolysis at 0.2 g/L [4]
0.125 µg/mL | 0.03125 µg/mL | 0.03125 µg/mL | CC[C@H](C)[C@H](NC(=O)[C@@H]1C[C@@H](O)CN1C(=O)[C@@H](NC(=N)N)C(C)C)C(=O)N[C@H]1CCNC(=O)CC[C@@H](C(=O)N[C@@H](Cc2ccc(O)cc2)C(=O)O)NC(=O)[C@H](CCN)NC(=O)[C@H](CCN)NC(=O)[C@H](CCCCN)NC(=O)[C@@H](CCN)NC(=O)[C@H]([C@@H](C)O)NC(=O)[C@H](CCN)NC(=O)[C@H](CCCNC(=N)N)NC(=O)[C@H](CC(N)=O)NC(=O)[C@H](CO)NC(=O)[C@H](Cc2ccc(O)cc2)NC1=O [Example 83, Gua-Val-Hyp-Ile-Dab-Tyr-Ser-Asn-Arg-Dab-Thr-^DDab-Lys-Dab-Dab-Glu-Tyr] ({Val(Nα-amidino)}-[Hyp]I[Dab]YSNR[Dab]T[dDab]K[Dab][Dab]EY-OH; lactam 3-14) | <1%
0.0625 µg/mL | 0.03125 µg/mL | 0.03125 µg/mL | CC[C@H](C)[C@H](NC(=O)[C@@H]1C[C@@H](O)CN1C(=O)[C@@H](NC(=N)N)C(C)C)C(=O)N[C@H]1CCNC(=O)CC[C@@H](C(=O)N[C@@H](Cc2ccc(O)cc2)C(=O)O)NC(=O)[C@H](CCN)NC(=O)[C@H](CCN)NC(=O)[C@H](CCCCN)NC(=O)[C@@H](CCN)NC(=O)[C@H](CO)NC(=O)[C@H](CCN)NC(=O)[C@H](CCCNC(=N)N)NC(=O)[C@H](CC(N)=O)NC(=O)[C@H]([C@@H](C)O)NC(=O)[C@H](Cc2ccc(O)cc2)NC1=O [Example 86, Gua-Val-Hyp-Ile-Dab-Tyr-Thr-Asn-Arg-Dab-Ser-^DDab-Lys-Dab-Dab-Glu-Tyr] ({Val(Nα-amidino)}-[Hyp]I[Dab]YTNR[Dab]S[dDab]K[Dab][Dab]EY-OH; lactam 3-14) | <1%
0.125 µg/mL | 0.125 µg/mL | 0.0625 µg/mL | CC[C@H](C)[C@H](NC(=O)[C@@H]1C[C@@H](O)CN1C(=O)[C@@H](NC(=N)N)C(C)C)C(=O)N[C@H]1CCC(=O)NCC[C@@H](C(=O)N[C@@H](Cc2ccc(O)cc2)C(=O)O)NC(=O)[C@H](CCN)NC(=O)[C@H](CCN)NC(=O)[C@H](CCCCN)NC(=O)[C@@H](CCN)NC(=O)[C@H]([C@@H](C)O)NC(=O)[C@H](CCN)NC(=O)[C@H](CCCNC(=N)N)NC(=O)[C@H](CC(N)=O)NC(=O)[C@H](CO)NC(=O)[C@H](Cc2ccc(O)cc2)NC1=O [Example 87, Gua-Val-Hyp-Ile-Glu-Tyr-Ser-Asn-Arg-Dab-Thr-^DDab-Lys-Dab-Dab-Dab-Tyr] ({Val(Nα-amidino)}-[Hyp]IEYSNR[Dab]T[dDab]K[Dab][Dab][Dab]Y-OH; lactam 3-14) | <1%
